Measurements reported in ChEMBL document CHEMBL1201862, “PubChem BioAssay data set” (2004).
Calls of active or inactive are those of the source.

Columns and labels:
[1] = Luminescence Cell-Based Dose Retest to Confirm Inhibitors of Cancer Stem Cells. [Related pubchem assays (depositor defined):AID2717, AID2721]; assay type: functional; settings: Homo sapiens
Paired box protein Pax-8 = Paired box protein Pax-8 (Homo sapiens, UniProt Q06710); test: inhibitors of PAX8-driven TPO luciferase reporter, dose response, RMG-I cells, cherry-pick (AID 687027); assay type: functional, cell-based;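 note: luciferase reporter driven by Pax8 target thyroperoxidase promoter measured by SteadyGlo luminescence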
Paired box protein Pax-8, sequence (Q06710 whole entry): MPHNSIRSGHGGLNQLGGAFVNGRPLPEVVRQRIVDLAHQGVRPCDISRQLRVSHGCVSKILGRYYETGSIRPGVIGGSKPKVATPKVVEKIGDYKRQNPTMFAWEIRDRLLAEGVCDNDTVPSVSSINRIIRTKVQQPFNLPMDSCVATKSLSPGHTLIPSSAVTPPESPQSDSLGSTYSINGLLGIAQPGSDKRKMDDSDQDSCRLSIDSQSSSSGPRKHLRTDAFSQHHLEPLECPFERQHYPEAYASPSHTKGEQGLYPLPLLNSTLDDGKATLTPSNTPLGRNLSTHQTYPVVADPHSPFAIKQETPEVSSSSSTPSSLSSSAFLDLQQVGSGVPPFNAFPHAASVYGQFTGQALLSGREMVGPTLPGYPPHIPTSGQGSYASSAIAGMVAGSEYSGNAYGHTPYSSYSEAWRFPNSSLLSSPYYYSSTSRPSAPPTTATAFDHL

[2] = target: T1, Corticotropin-releasing factor receptor 2/Corticotropin-releasing factor-binding protein (Homo sapiens, UniProt P24387+Q13324); test: Dose Response confirmation of uHTS hits for small molecule antagonists of the CRF-binding protein and CRF-R2 receptor complex.; assay type: functional; settings: read-out: IC50_Mean
T1 sequence (Q13324 whole entry): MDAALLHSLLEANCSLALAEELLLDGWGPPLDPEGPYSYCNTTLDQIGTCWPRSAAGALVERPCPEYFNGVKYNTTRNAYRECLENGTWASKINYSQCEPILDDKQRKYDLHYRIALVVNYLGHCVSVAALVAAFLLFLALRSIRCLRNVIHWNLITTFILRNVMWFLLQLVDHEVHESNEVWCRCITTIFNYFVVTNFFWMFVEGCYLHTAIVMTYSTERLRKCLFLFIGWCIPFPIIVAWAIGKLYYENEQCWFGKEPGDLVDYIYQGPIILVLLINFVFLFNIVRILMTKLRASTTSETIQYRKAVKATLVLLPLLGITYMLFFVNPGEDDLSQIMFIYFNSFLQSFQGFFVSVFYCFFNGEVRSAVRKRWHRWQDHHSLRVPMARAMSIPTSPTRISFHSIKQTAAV
T1 sequence (P24387 whole entry): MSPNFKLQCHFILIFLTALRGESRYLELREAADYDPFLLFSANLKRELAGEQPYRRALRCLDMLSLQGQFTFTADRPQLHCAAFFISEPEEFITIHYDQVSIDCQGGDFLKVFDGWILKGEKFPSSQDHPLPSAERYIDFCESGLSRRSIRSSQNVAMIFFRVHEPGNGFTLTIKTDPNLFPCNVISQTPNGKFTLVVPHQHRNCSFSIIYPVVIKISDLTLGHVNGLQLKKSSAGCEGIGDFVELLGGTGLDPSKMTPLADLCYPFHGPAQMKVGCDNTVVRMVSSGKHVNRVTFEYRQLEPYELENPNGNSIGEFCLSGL

[3] = target: T1, Corticotropin-releasing factor receptor 2/Corticotropin-releasing factor-binding protein; test: activators of CRF receptor 2 with binding protein – uHTS hits, confirmation (AID 602473); assay type: functional; settings: read-out: EC50_Mean
[4] = target: T2, Replicative DNA helicase DnaB (Mycobacterium tuberculosis, UniProt P9WMR3); test: DnaB intein splicing inhibitors, dose response, biochemical, cell-free fluorescence (AID 449749); assay type: functional
T2 sequence (P9WMR3 whole entry): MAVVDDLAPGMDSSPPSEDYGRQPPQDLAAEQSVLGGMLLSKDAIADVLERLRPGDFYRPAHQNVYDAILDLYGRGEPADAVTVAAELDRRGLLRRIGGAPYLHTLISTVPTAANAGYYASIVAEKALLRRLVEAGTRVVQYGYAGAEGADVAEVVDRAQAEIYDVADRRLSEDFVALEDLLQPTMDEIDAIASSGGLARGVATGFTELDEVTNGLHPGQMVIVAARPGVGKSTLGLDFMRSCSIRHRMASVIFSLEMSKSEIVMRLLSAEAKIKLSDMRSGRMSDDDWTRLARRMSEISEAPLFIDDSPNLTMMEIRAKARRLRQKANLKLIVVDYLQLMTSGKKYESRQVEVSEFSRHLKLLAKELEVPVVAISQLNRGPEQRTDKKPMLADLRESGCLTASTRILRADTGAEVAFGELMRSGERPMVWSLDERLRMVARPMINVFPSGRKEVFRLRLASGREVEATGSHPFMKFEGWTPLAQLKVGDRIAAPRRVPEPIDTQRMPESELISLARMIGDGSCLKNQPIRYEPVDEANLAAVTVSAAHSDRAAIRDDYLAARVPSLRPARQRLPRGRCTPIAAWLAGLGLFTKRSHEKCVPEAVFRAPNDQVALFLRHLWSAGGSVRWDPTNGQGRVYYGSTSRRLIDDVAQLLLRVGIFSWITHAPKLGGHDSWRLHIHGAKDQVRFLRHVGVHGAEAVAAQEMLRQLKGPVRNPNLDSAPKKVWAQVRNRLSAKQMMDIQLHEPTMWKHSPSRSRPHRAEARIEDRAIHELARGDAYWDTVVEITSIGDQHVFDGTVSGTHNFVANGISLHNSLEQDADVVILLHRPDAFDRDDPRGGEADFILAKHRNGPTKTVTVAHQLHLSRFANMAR

Protein RecA = target: T3, Protein RecA (Mycobacterium tuberculosis, UniProt P9WHJ3); test: Fluorescence Cell-Free Homogeneous Dose Retest to Identify Inhibitors of RecA-Intein Splicing Activity. [Related pubchem assays (depositor defined):AID2097, AID2223, AID489010, AID492950]; assay type: functional
T3 sequence (P9WHJ3 whole entry): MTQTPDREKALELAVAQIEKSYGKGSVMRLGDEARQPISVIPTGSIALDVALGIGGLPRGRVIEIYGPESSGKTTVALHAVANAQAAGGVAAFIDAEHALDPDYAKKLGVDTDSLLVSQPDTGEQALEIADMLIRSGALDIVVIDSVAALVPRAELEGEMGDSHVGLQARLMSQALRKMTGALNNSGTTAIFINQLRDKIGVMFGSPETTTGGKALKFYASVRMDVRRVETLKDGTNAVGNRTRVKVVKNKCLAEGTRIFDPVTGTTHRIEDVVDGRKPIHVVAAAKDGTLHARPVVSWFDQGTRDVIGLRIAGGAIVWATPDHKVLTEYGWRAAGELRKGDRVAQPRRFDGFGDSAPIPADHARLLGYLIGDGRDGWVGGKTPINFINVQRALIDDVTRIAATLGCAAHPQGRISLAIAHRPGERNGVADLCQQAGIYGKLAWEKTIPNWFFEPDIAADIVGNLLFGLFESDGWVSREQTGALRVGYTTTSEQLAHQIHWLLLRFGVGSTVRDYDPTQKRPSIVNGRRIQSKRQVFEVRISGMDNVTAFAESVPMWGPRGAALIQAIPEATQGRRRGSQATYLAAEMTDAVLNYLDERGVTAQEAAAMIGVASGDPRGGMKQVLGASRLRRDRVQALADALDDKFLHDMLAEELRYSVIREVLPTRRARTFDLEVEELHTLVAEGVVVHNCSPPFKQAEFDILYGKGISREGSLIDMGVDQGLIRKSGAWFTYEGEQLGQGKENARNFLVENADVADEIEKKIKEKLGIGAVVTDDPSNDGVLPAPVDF

INS1 = test: beta cell apoptosis inhibitors, cytokine rescue, dose response, luminescence, retest (AID 449756); assay type: functional, cell-based; settings: Rattus norvegicus;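 note: cell death triggered by IL-1 beta plus TNF-alpha plus IFN-gamma mixture; protective hits raise ATP signal compared with cytokine alone wells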
[5] = tested on: Streptococcus sp. 'group A'; test: growth inhibition of control SK(-) GAS strain, dose response, counter-screen for streptokinase expression inhibitor project, luminescence, kanamycin, BacTiterGlo, confirmation (AID 1900); assay type: functional, organism-based
Streptococcus = test: Group A Streptococcus viability loss, dose response, counter-screen for streptokinase expression inhibitor project, luminescence, BacTiterGlo (AID 1915); assay type: functional, organism-based;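 note: potency for reduction of bacterial viability or growth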
Cytochrome P450 2C19 = Cytochrome P450 2C19 (Homo sapiens, UniProt P33261); test: Cytochrome panel assay with activity outcomes. Panel member name: p450-cyp2c19 Compounds with AC50 equal or less than 10 uM are considered active; assay type: functional; settings: read-out: AC50
Cytochrome P450 2C19, sequence (P33261 whole entry): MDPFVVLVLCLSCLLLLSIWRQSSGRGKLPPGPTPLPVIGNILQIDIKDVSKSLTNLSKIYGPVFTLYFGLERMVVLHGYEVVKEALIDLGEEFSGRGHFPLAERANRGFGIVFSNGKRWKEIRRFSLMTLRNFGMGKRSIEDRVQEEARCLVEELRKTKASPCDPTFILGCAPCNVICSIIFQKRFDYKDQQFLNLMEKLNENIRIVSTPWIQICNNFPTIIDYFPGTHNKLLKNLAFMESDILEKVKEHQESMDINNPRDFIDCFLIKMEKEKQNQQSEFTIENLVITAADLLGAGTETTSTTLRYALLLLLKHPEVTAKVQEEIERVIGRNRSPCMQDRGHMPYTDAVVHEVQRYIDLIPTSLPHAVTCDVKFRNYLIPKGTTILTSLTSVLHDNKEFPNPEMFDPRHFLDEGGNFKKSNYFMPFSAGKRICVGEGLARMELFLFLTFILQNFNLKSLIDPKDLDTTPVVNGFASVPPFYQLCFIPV

Cytochrome P450 1A2 = target: T4, Cytochrome P450 1A2 (Homo sapiens, UniProt P05177);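 note: PubChem cytochrome P450 panel assay, CYP1A2 panel member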
T4 sequence (P05177 whole entry): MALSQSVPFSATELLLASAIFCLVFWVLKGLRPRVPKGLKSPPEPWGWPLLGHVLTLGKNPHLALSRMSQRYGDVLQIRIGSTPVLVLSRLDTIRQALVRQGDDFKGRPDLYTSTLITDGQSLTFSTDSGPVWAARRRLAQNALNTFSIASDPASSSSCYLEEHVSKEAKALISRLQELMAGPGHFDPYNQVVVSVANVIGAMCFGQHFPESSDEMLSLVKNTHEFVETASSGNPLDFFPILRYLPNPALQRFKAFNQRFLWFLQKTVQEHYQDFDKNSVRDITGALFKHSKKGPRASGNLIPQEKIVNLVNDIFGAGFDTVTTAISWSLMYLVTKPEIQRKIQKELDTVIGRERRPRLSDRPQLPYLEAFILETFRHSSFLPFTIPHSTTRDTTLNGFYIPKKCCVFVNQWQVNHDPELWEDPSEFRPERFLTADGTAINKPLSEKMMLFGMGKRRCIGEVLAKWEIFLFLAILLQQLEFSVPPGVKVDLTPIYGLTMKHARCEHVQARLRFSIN

Cytochrome P450 2C9 = Cytochrome P450 2C9 (Homo sapiens, UniProt P11712)
Cytochrome P450 2C9, sequence (P11712 whole entry): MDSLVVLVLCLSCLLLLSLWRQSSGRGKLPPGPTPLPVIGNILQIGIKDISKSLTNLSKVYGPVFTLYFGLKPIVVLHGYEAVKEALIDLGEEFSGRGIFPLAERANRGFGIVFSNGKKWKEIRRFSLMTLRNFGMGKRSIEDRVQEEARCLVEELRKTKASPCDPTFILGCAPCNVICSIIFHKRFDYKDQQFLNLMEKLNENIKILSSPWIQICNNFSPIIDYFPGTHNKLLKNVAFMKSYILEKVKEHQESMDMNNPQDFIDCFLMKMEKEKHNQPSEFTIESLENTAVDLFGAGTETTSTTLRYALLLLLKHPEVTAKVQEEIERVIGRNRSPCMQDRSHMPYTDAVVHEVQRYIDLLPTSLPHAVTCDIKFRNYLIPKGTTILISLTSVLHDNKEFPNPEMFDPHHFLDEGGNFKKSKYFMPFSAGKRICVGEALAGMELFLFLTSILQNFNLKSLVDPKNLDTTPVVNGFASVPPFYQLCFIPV

SMILES: COc1ccc(-c2ccc(C)cc2)cc1[C@H]1[C@@H]2C=CCC[C@@]2(C)C(=O)N1Cc1ccccc1
- AC50 [1]: 3.36 µM (active)

SMILES: CC#CCOC(=O)c1c(C)nc2sc3c(c2c1N)CCC(O)C3 (stereo unspecified)
- AC50 [1]: 4.7 µM (active)

SMILES: C[C@@H]1CCCCO[C@H](CN(C)Cc2ccc(Cl)c(Cl)c2)[C@@H](C)CN([C@@H](C)CO)C(=O)c2cc(NS(=O)(=O)c3ccc(Cl)cc3)ccc2O1
- AC50 (Paired box protein Pax-8): 10.2 µM (active)

SMILES: CCOC(=O)C(=NCCCN1CCOCC1)NNc1cccc(C(F)(F)F)c1
- AC50 [1]: 8.17 µM (active)

SMILES: Cc1cccc(C(=O)NC(=S)N2CCN(C(=S)NC(=O)c3cccc(C)c3)CC2)c1
- IC50 [2]: > 47.1 µM (inactive)
- EC50 [3]: > 53 µM (inactive)

SMILES: Cc1ccc2nsnc2c1NS(=O)(=O)c1c(C)ccc2nsnc12
- AC50 [4]: 37.8 µM (active)
- EC50 (Protein RecA): 24.8 µM (active)

SMILES: Cc1ccccc1C(=O)N1CCN(c2ccc(NC(=O)c3cccnc3)cc2)CC1
- AC50 (INS1): 7.89 µM (active)

SMILES: Clc1ccc(-c2nnc(CSc3nnc(-c4cccs4)o3)o2)cc1
- IC50 [2]: > 47.1 µM (inactive)
- EC50 [3]: > 53 µM (inactive)

SMILES: CC(Oc1cccc(Cl)c1)C(=O)NNC(=O)c1cccnc1 (stereo unspecified)
- IC50 [2]: > 47.1 µM (inactive)
- EC50 [3]: > 53 µM (inactive)

SMILES: C[C@@H]1CN([C@H](C)CO)C(=O)c2cc(NC(=O)Nc3ccc(F)cc3)ccc2O[C@@H](C)CCCCO[C@H]1CN(C)S(=O)(=O)c1ccc(F)cc1
- AC50 (Paired box protein Pax-8): 8.62 µM (active)

SMILES: Cc1csc2c(N3CCN(C(=O)c4ccc(C(C)(C)C)cc4)CC3)ncnc12
- AC50 (INS1): 13.2 µM (active)

SMILES: Cc1ccc(CN2CCN(C3CCOCC3)CC2CCO)cc1 (stereo unspecified)
- IC50 [2]: > 47.1 µM (inactive)
- EC50 [3]: > 53 µM (inactive)

SMILES: O=C(Nc1ccccc1N(C(=O)c1ccco1)S(=O)(=O)c1cccs1)c1ccco1
- AC50 [4]: 5.6 µM (active)
- EC50 (Protein RecA): 8.58 µM (active)

SMILES: Oc1ccc(/C=N/Nc2nc(N3CCCCCC3)nc(N3CCCCCC3)n2)c(O)c1
- EC50 [5]: 1.13 µM (active)
- EC50 (Streptococcus): 1.86 µM (active)
- IC50 [2]: > 47.1 µM (inactive)
- EC50 [3]: > 53 µM (inactive)

SMILES: CCOC(=O)c1sc(NC(=O)c2cccc(S(=O)(=O)N3CCN(C)CC3)c2)cc1C
- IC50 [2]: > 47.1 µM (inactive)
- EC50 [3]: > 53 µM (inactive)

SMILES: O=C(C1CCCN(S(=O)(=O)c2ccc([N+](=O)[O-])cc2)C1)N1CCCCC1 (stereo unspecified)
- AC50 [1]: > 195 µM (inactive)

SMILES: Fc1ccc(NC(S)=Nc2cc(-c3ccccc3)[nH]n2)cc1Cl
- AC50 [1]: 3.05 µM (active)

SMILES: COc1cccc(C2CC(c3cccs3)=NN2C(=S)Nc2ccccc2)c1OC (stereo unspecified)
- IC50 [2]: > 47.1 µM (inactive)
- EC50 [3]: > 53 µM (inactive)

SMILES: O=C(Nc1ccc([N+](=O)[O-])cn1)c1cc(-c2cccc(Br)c2)nc2ccccc12
- AC50 (Paired box protein Pax-8): 45.6 µM (active)

SMILES: Cc1ccc(S(=O)(=O)Nc2ccc3c(c2)C(=O)N([C@H](C)CO)C[C@@H](C)[C@H](CN(C)Cc2ccc(C(F)(F)F)cc2)OCCCC[C@@H](C)O3)cc1
- AC50 (Paired box protein Pax-8): 8.45 µM (active)

SMILES: CCOc1cc(/C=C2\C(=O)N(c3ccc(C(N)=O)cc3)N=C2C)ccc1OC(=O)c1cccs1
- AC50 [4]: 2.35 µM (active)
- EC50 (Protein RecA): 1.93 µM (active)

SMILES: Cc1sc2ncnc(OCC(=O)NC(C)C)c2c1C
- AC50 (Cytochrome P450 2C19): 20 µM (inconclusive)
- IC50 [2]: > 47.1 µM (inactive)
- EC50 [3]: > 53 µM (inactive)
- AC50 (Cytochrome P450 1A2): 31.6 µM (inconclusive)
- AC50 (Cytochrome P450 2C9): 22.4 µM (inconclusive)

SMILES: O=C(NCc1ccccn1)C1CCN(S(=O)(=O)c2c[nH]cn2)CC1
- IC50 [2]: > 47.1 µM (inactive)
- EC50 [3]: > 53 µM (inactive)

SMILES: COc1ccccc1NC(=O)Nc1ccc(-n2ccc(C(F)(F)F)n2)cc1
- AC50 [1]: 4.01 µM (active)
